Assays:
Assay in all cases: relative viability (nuclei count vs DMSO), 5 days (fraction); higher = more cells survive
[1] = compound: CCCS(=O)(=O)Nc1ccc(F)c(C(=O)c2c[nH]c3ncc(-c4ccc(Cl)cc4)cc23)c1F [Vemurafenib] + CC(=O)c1c(C)c2cnc(Nc3ccc(N4CCNCC4)cn3)nc2n(C2CCCC2)c1=O [Palbociclib] (partner 0.5 µM)
Method in brief: (§1)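 Lung cancer cell lines were pin-tool dosed in 1536-well plates on the day after seeding, with either a lone drug or a fixed anchor-drug dose plus five library-drug doses (not always all listed) in √10 steps. Nuclei were counted on 4× images after 5 days. Relative viability is the ratio of treated-well to vehicle-well nuclei counts, with each value a median of duplicate plates.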

Vemurafenib + Dasatinib = compound: CCCS(=O)(=O)Nc1ccc(F)c(C(=O)c2c[nH]c3ncc(-c4ccc(Cl)cc4)cc23)c1F [Vemurafenib] + Cc1nc(Nc2ncc(C(=O)Nc3c(C)cccc3Cl)s2)cc(N2CCN(CCO)CC2)n1 [Dasatinib] (partner 0.075 µM)
Method in brief: as §1

OSI-027 + Lapatinib = compound: COc1cccc2cc(-c3nc([C@H]4CC[C@H](C(=O)O)CC4)n4ncnc(N)c34)[nH]c12 [OSI-027] + CS(=O)(=O)CCNCc1ccc(-c2ccc3ncnc(Nc4ccc(OCc5cccc(F)c5)c(Cl)c4)c3c2)o1 [Lapatinib] (partner 2 µM)
Method in brief: as §1

OSI-027 + Phenformin = compound: COc1cccc2cc(-c3nc([C@H]4CC[C@H](C(=O)O)CC4)n4ncnc(N)c34)[nH]c12 [OSI-027] + N=C(N)NC(=N)NCCc1ccccc1 [Phenformin] (partner 250 µM)
Method in brief: as §1

Cell Line	relative viability ([1]; first compound 0.03162 µM)	relative viability ([1]; first compound 0.1 µM)	relative viability ([1]; first compound 1 µM)	relative viability (Vemurafenib + Dasatinib; first compound 0.03162 µM)	relative viability (Vemurafenib + Dasatinib; first compound 0.1 µM)	relative viability (Vemurafenib + Dasatinib; first compound 0.3162 µM)	relative viability (Vemurafenib + Dasatinib; first compound 1 µM)	relative viability (OSI-027 + Lapatinib; first compound 0.01 µM)	relative viability (OSI-027 + Lapatinib; first compound 0.03162 µM)	relative viability (OSI-027 + Lapatinib; first compound 0.1 µM)	relative viability (OSI-027 + Lapatinib; first compound 0.3162 µM)	relative viability (OSI-027 + Lapatinib; first compound 1 µM)	relative viability (OSI-027 + Phenformin; first compound 0.01 µM)	relative viability (OSI-027 + Phenformin; first compound 0.03162 µM)	relative viability (OSI-027 + Phenformin; first compound 0.1 µM)	relative viability (OSI-027 + Phenformin; first compound 0.3162 µM)	relative viability (OSI-027 + Phenformin; first compound 1 µM)	relative viability ([1]; first compound 0.3162 µM)
A-427	0.525	0.481	0.553	0.597	0.624	0.446	0.581	1.04	1.16	0.927	0.768	0.661	0.296	0.332	0.289	0.269	0.297	
NCI-H1703								1.33	1.1	0.889	0.736	0.365						
HCC-366	0.359	0.332	0.321	0.576	0.643	0.265	0.564	1.25	1.1	1.16	0.764	0.148	0.598	0.649	0.637	0.659	0.498	
NCI-H661	0.406	0.357	0.403	0.829	0.59	0.54	0.938	0.509	0.519	0.453	0.334	0.279	0.263	0.286	0.254	0.258	0.245	0.454
NCI-H2126	0.328	0.354	0.333	0.562	0.584		0.537	0.771	0.814	0.728	0.563	0.529	0.527	0.555	0.437	0.405	0.404	0.344
LCLC-97TM1		0.22	0.207	0.76	0.853	1.05	0.685	1.31	1.18	0.598	0.376	0.222	0.477	0.459	0.332	0.246	0.306	0.22
NCI-H2405	0.493	0.536	0.58	0.213	0.231		0.231	1.03	0.996	0.798	0.852	0.539	0.39	0.355	0.338	0.327	0.27	
COR-L 105	0.405		0.403	0.317			0.316	0.34	0.356	0.336	0.297	0.295	0.47	0.466	0.479	0.351	0.359	0.328
BEN	0.489	0.492	0.491	0.274	0.257		0.309	0.626	0.529	0.419	0.355	0.281	0.248	0.27	0.288	0.244	0.232	0.421
HCC-827	0.413		0.511	0.386		0.399	0.348	0.151	0.173	0.205	0.185	0.176	0.358	0.423	0.408	0.4	0.328	0.509
